Data set [1] is described as follows: Volume of distribution at steady state in Sprague-Dawley rat at 1 mg/kg, iv. Format: ADME, organism-based. Particulars: in vivo, read-out: Vdss.
A further data set deals with T1, Bile acid receptor (Homo sapiens, UniProt Q96RI1).
T1 sequence (Q96RI1 whole entry): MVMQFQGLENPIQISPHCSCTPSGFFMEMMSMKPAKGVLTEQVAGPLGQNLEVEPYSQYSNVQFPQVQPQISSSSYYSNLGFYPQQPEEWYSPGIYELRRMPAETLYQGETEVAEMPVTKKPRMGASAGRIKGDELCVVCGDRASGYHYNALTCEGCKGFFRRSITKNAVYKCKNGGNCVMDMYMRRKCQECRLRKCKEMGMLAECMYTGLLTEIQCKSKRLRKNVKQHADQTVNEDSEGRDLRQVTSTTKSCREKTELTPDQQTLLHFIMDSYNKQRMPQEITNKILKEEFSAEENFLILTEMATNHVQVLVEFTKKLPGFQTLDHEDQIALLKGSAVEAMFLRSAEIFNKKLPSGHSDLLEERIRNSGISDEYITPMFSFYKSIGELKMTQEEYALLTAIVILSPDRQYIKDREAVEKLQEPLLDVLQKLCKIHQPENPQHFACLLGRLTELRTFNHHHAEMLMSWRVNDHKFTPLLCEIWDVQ
Put plainly: Inhibition of Gal4-tagged FXR LBD (unknown origin) by cell based luciferase reporter gene assay. Background: A reporter such as luciferase makes a cellular process visible.

The nature of data set [2]: Distribution coefficient of the compound, high-throughput logD using octanol-buffer at pH 7.4 by LC-MS/MS analysis shake flask method. Format: physicochemical.
Data set [3] relates to Rattus norvegicus. Put plainly: Anti-inflammatory activity in mBSA/CFA-immunized Lewis rat delayed-type hypersensitivity model assessed as reduction in ear swelling at 1 mg/kg, po via gavage administered twice daily for 2 days treated prior to mBSA/CFA challenge measured after up to 50 hrs. Format: functional, organism-based.
The target of another data set is T2, Glucocorticoid receptor (Homo sapiens, UniProt P04150).
T2 sequence (P04150 whole entry): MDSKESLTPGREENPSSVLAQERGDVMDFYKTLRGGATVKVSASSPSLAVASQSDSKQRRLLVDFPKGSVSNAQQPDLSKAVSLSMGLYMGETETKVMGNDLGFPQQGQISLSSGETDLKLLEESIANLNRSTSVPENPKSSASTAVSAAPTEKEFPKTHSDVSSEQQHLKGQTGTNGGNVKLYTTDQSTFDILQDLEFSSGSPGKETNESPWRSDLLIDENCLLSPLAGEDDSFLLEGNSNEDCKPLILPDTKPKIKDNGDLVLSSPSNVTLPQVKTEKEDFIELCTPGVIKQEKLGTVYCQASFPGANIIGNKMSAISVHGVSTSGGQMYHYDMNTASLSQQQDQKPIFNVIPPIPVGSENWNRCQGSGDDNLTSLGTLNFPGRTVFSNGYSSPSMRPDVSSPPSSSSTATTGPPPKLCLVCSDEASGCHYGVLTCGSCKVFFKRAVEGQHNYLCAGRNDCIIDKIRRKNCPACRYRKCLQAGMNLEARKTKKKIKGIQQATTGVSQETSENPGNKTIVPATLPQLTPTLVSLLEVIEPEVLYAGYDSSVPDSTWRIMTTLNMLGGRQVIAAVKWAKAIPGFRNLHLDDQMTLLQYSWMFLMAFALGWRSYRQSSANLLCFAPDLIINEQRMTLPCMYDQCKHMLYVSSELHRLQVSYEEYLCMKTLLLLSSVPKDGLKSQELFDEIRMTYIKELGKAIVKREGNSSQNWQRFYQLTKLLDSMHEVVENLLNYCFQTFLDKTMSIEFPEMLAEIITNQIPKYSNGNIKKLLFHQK
The data set is described as follows: Inhibition of Gal4-tagged GR LBD (unknown origin) by cell based luciferase reporter gene assay.

In data set [4] the test system is Rattus norvegicus. Put plainly: Anti-inflammatory activity in mBSA/CFA-immunized Lewis rat delayed-type hypersensitivity model assessed as reduction in ear swelling at 1 to 15 mg/kg, po via gavage administered twice daily for 2 days treated prior to mBSA/CFA challenge measured after up to 50 hrs. Format: functional, organism-based.
For data set [5], the system named is Rattus norvegicus. Put plainly: Anti-inflammatory activity in mBSA/CFA-immunized Lewis rat delayed-type hypersensitivity model assessed as reduction in frequencies of IL-17-producing draining lymph node cells at 1 to 15 mg/kg, po via gavage administered twice daily for 2 days treated prior to mBSA/CFA challenge relative to control. Format: functional. Details: scale not given: the % may be the effect or the level left.

The target in data set [6] is T3, Nuclear receptor subfamily 1 group I member 2 (Homo sapiens, UniProt O75469).
T3 sequence (O75469 whole entry): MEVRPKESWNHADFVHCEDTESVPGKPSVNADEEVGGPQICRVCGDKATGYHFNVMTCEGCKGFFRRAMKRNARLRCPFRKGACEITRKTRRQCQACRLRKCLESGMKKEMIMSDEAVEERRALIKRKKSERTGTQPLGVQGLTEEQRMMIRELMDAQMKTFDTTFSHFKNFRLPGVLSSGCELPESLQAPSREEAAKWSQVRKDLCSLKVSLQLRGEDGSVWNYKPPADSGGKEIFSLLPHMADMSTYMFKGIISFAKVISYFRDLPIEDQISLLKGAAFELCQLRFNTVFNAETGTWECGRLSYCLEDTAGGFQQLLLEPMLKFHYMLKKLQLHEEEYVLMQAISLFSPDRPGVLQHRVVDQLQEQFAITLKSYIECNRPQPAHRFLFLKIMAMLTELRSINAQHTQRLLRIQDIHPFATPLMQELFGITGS
Put plainly: Inhibition of Gal4-tagged PXR LBD (unknown origin) by cell based luciferase reporter gene assay.

Activity calls are given as the source filed them. No cut-off for these calls is given here.

On to `Cc1c(C2(C(F)(F)F)CC2)nc(C2CC2)n1-c1c(Cl)ccc(N2CC3(CC(C(=O)O)C3)C2)c1Cl` (single isomer, unassigned; atropisomer), for which, in data set [1], the Vd came to 1 L/kg. The IC50 (at Bile acid receptor; against Glucocorticoid receptor; in data set [6]) was more than 10 µM throughout. The logD (usually the decadic logarithm of the distribution of all forms, ionised or not, between an organic phase and buffer at a given pH) in data set [2] was found to be 2. Further, in the data set with Rattus norvegicus [3], the result was inactive. In addition, the Activity result in the data set on Rattus norvegicus [4] was “Dose-dependent effect”; in the data set on Rattus norvegicus [5], 50%.

The values are drawn from ChEMBL document CHEMBL4321852, “Structure-Based and Property-Driven Optimization of N-Aryl Imidazoles toward Potent and Selective Oral RORγt Inhibitors” (J Med Chem, 2019).
